Measured values: ChEMBL document CHEMBL6121038, “Design and Synthesis of Hederagenin Derivatives for the Treatment of Sepsis by Targeting TAK1 and Regulating the TAK1-NF-κB/MAPK Signaling” (J Med Chem, 2025)
One block for each compound: values may come before it. Calls of active or inactive are those of the source. No cut-off for these calls is given here.

Tests used:
RAW264.7 [1] = test: Cytotoxicity against mouse RAW264.7 cells assessed as cell viability at 40 uM measured after 24 hrs by MTT assay; assay type: toxicity, cell-based; conditions: raw264.7, 24 h
RAW264.7 [2] = test: Antiinflammatory activity in LPS-induced mouse RAW264.7 cells assessed as inhibition of TNF-alpha level at 20 uM incubated for 24 hrs by ELISA method relative to control; assay type: functional
RAW264.7 [3] = test: Antiinflammatory activity in LPS-induced mouse RAW264.7 cells assessed as inhibition of IL-6 level at 20 uM incubated for 24 hrs by ELISA method relative to control; assay type: functional
[4] = Cmax in BALB/c mouse at 10 mg/kg, po measured upto 24 hrs by LC/MS-MS analysis; assay type: ADME, organism-based; conditions: in vivo
[5] = Tmax in BALB/c mouse at 10 mg/kg, po measured upto 24 hrs by LC/MS-MS analysis; assay type: ADME, organism-based; conditions: in vivo
[6] = Half life in BALB/c mouse at 10 mg/kg, po measured upto 24 hrs by LC/MS-MS analysis; assay type: ADME, organism-based; conditions: in vivo
[7] = AUC (0 to t) in BALB/c mouse at 10 mg/kg, po measured upto 24 hrs by LC/MS-MS analysis; assay type: ADME, organism-based; conditions: in vivo
[8] = AUC (0 to infinity) in BALB/c mouse at 10 mg/kg, po measured upto 24 hrs by LC/MS-MS analysis; assay type: ADME, organism-based; conditions: in vivo
[9] = Toxicity in BALB/c mouse assessed as histopathological lesions in liver at 10 mg/kg, po by H and E staining based analysis; assay type: organism-based; conditions: in vivo
[10] = Toxicity in BALB/c mouse assessed as histopathological lesions in kidney at 10 mg/kg, po by H and E staining based analysis; assay type: organism-based; conditions: in vivo
[11] = Toxicity in BALB/c mouse assessed as change in AST level in serum at 10 mg/kg, po; assay type: organism-based; conditions: in vivo
[12] = Toxicity in BALB/c mouse assessed as change in ALT level in serum at 10 mg/kg, po; assay type: organism-based; conditions: in vivo
[13] = Toxicity in BALB/c mouse assessed as change in SOD level in serum at 10 mg/kg, po; assay type: organism-based; conditions: in vivo
[14] = Toxicity in BALB/c mouse assessed as change in BUN level in serum at 10 mg/kg, po; assay type: organism-based; conditions: in vivo
[15] = Toxicity in BALB/c mouse assessed as change in SCr level in serum at 10 mg/kg, po; assay type: organism-based; conditions: in vivo
RAW264.7 [16] = test: Antiinflammatory activity in LPS-induced mouse RAW264.7 cells assessed as reduction in TNF-alpha release incubated for 24 hrs by ELISA method; assay type: functional, cell-based; conditions: dose 2.5-10 µM
RAW264.7 [17] = test: Antiinflammatory activity in LPS-induced mouse RAW264.7 cells assessed as reduction in IL-6 release incubated for 24 hrs by ELISA method; assay type: functional, cell-based; conditions: dose 2.5-10 µM
[18] = Toxicity in BALB/c mouse assessed as liver lesions at 2.5 to 10 mg/kg, iv administered for 2 hrs and measured after 12 hrs by H and E staining based assay; assay type: organism-based; conditions: in vivo, 14 h, dose 2.5-10 mg/kg
[19] = Toxicity in BALB/c mouse assessed as lung lesions at 2.5 to 10 mg/kg, iv administered for 2 hrs and measured after 12 hrs by H and E staining based assay; assay type: organism-based; conditions: in vivo, 14 h, dose 2.5-10 mg/kg
[20] = Toxicity in BALB/c mouse assessed as kidney lesions at 2.5 to 10 mg/kg, iv administered for 2 hrs and measured after 12 hrs by H and E staining based assay; assay type: organism-based; conditions: in vivo, 14 h, dose 2.5-10 mg/kg
Mus musculus [21] = test: Antiinflammatory activity in LPS-induced BALB/c sepsis mouse model assessed as decrease in serum AST level at 2.5 to 10 mg/kg, iv administered for 2 hrs and measured after 12 hrs; assay type: functional, organism-based; conditions: dose 2.5-10 mg/kg, time 14.0 hrs
Mus musculus [22] = test: Antiinflammatory activity in LPS-induced BALB/c sepsis mouse model assessed as decrease in serum ALT level at 2.5 to 10 mg/kg, iv administered for 2 hrs and measured after 12 hrs; assay type: functional, organism-based; conditions: dose 2.5-10 mg/kg, time 14.0 hrs
Mus musculus [23] = test: Antiinflammatory activity in LPS-induced BALB/c sepsis mouse model assessed as decrease in serum SOD level at 2.5 to 10 mg/kg, iv administered for 2 hrs and measured after 12 hrs; assay type: functional, organism-based; conditions: dose 2.5-10 mg/kg, time 14.0 hrs
Mus musculus [24] = test: Antiinflammatory activity in LPS-induced BALB/c sepsis mouse model assessed as decrease in serum MDA level at 2.5 to 10 mg/kg, iv administered for 2 hrs and measured after 12 hrs; assay type: functional, organism-based; conditions: dose 2.5-10 mg/kg, time 14.0 hrs
Mus musculus [25] = test: Antiinflammatory activity in LPS-induced BALB/c sepsis mouse model assessed as decrease in serum BUN level at 2.5 to 10 mg/kg, iv administered for 2 hrs and measured after 12 hrs; assay type: functional, organism-based; conditions: dose 2.5-10 mg/kg, time 14.0 hrs
Mus musculus [26] = test: Antiinflammatory activity in LPS-induced BALB/c sepsis mouse model assessed as decrease in serum SCr level at 2.5 to 10 mg/kg, iv administered for 2 hrs and measured after 12 hrs; assay type: functional, organism-based; conditions: dose 2.5-10 mg/kg, time 14.0 hrs
Mus musculus [27] = test: Antiinflammatory activity in LPS-induced BALB/c sepsis mouse model assessed as reduction in IL-6 level in serum at 2.5 to 10 mg/kg, iv administered for 2 hrs and measured after 12 hrs by ELISA analysis; assay type: functional, organism-based; conditions: dose 2.5-10 mg/kg, time 14.0 hrs
Mus musculus [28] = test: Antiinflammatory activity in LPS-induced BALB/c sepsis mouse model assessed as reduction in TNF-alpha level in serum at 2.5 to 10 mg/kg, iv administered for 2 hrs and measured after 12 hrs by ELISA analysis; assay type: functional, organism-based; conditions: dose 2.5-10 mg/kg, time 14.0 hrs
[29] = Toxicity in BALB/c mouse assessed as increase in survival rate at 10 mg/kg, po administered for 3 days; assay type: organism-based; conditions: in vivo, 72 h, time 3 day
[30] = Toxicity in BALB/c mouse assessed as change in body weight at 10 mg/kg, po administered for 3 days; assay type: organism-based; conditions: in vivo, 72 h, time 3 day
RAW264.7 [31] = test: Antiinflammatory activity in LPS-induced mouse RAW264.7 cells assessed as reduction in TAK1-TAB1 complex formation incubated for 2 hrs vy immunoprecipitation analysis; assay type: functional, cell-based
[32] = Toxicity in BALB/c mouse assessed as pathological damage in liver at 10 mg/kg, po administered for 2 hrs by H and E staining based analysis; assay type: organism-based; conditions: in vivo
[33] = Toxicity in BALB/c mouse assessed as pathological damage in heart at 10 mg/kg, po administered for 2 hrs by H and E staining based analysis; assay type: organism-based; conditions: in vivo
[34] = Toxicity in BALB/c mouse assessed as pathological damage in spleen at 10 mg/kg, po administered for 2 hrs by H and E staining based analysis; assay type: organism-based; conditions: in vivo
[35] = Toxicity in BALB/c mouse assessed as pathological damage in lung at 10 mg/kg, po administered for 2 hrs by H and E staining based analysis; assay type: organism-based; conditions: in vivo
[36] = Toxicity in BALB/c mouse assessed as pathological damage in kidney at 10 mg/kg, po administered for 2 hrs by H and E staining based analysis; assay type: organism-based; conditions: in vivo
[37] = Toxicity in BALB/c mouse assessed as animal survival at 750 mg/kg, po administered for 2 hrs; assay type: organism-based; conditions: in vivo
[38] = Toxicity in BALB/c mouse assessed as animal survival at 500 mg/kg, po administered for 2 hrs; assay type: organism-based; conditions: in vivo
[39] = (§1) Toxicity in BALB/c mouse assessed as histopathological lesions in lung at 10 mg/kg, po in presence of 4a-benzyl-12-ethyl-(6aS,6bR,9R,13aR)-9-(hydroxymethyl)-2,2,6a,6b,9,13a-hexamethyl-1,3,4,5,6,6a,6b,7,8,8a,9,13,13a,13b,14,15b-hexadecahydropiceno[2,3-d]isoxazole-4a,12(2H)-dicarboxylate by H and E staining based analysis; assay type: organism-based; conditions: in vivo
[40] = as §1, with “liver” for “lung”; assay type: organism-based; conditions: in vivo
[41] = as §1, with “kidney” for “lung”; assay type: organism-based; conditions: in vivo
[42] = Toxicity in BALB/c mouse assessed as change in MDA level in serum at 10 mg/kg, po; assay type: organism-based; conditions: in vivo

- Cmax [4]: 3930 ng/mL
- Tmax [5]: 4 h
- half-life [6]: 4.85 h
- AUC(0-t) at 24 h [7]: 22700 ng·h/mL
- AUC(0-inf) [8]: 23400 ng·h/mL
SMILES: CCOC(=O)c1noc2c1C[C@@]1(C)[C@@H](CC[C@]3(C)[C@@H]1CC=C1[C@@H]4CC(C)(C)CC[C@]4(C(=O)OCc4ccccc4)CC[C@]13C)[C@]2(C)CO
- Activity (RAW264.7 [1]): Non-toxic
- inhibition at 20 µM (RAW264.7 [2]): 52.4%
- inhibition at 20 µM (RAW264.7 [3]): 32.5%
- Activity [9]: Non-toxic
- Activity [10]: Non-toxic
- Activity [11]: Non-toxic
- Activity [12]: Non-toxic
- Activity [13]: Non-toxic
- Activity [14]: Non-toxic
- Activity [15]: Non-toxic

SMILES: CCOC(=O)c1noc2c1C[C@@]1(C)[C@@H](CC[C@]3(C)[C@@H]1CC=C1[C@@H]4CC(C)(C)CC[C@]4(C(=O)OCc4ccccc4)CC[C@]13C)[C@]2(C)COC(=O)CCC(=O)N1CCOCC1
- Activity (RAW264.7 [1]): Non-toxic
- inhibition at 20 µM (RAW264.7 [2]): 80%
- inhibition at 20 µM (RAW264.7 [3]): 69.6%
- Activity (RAW264.7 [16]): Dose-dependent-effect
- Activity (RAW264.7 [17]): Dose-dependent-effect
- Activity [18]: Non-toxic
- Activity [19]: Non-toxic
- Activity [20]: Non-toxic
- Activity (Mus musculus [21]): Active
- Activity (Mus musculus [22]): Active
- Activity (Mus musculus [23]): Active
- Activity (Mus musculus [24]): Active
- Activity (Mus musculus [25]): Active
- Activity (Mus musculus [26]): Active
- Activity (Mus musculus [27]): Active
- Activity (Mus musculus [28]): Active
- Activity [29]: Non-toxic
- Activity [30]: Non-toxic
- Activity (RAW264.7 [31]): Active
- Activity [32]: Non-toxic
- Activity [33]: Non-toxic
- Activity [34]: Non-toxic
- Activity [35]: Non-toxic
- Activity [36]: Non-toxic
- Activity [37]: Toxic
- Activity [38]: Non-toxic
- Cmax [4]: 2760 ng/mL
- Tmax [5]: 2.25 h
- half-life [6]: 5.42 h
- AUC(0-t) at 24 h [7]: 9620 ng·h/mL
- AUC(0-inf) [8]: 9970 ng·h/mL
- Activity [39]: Non-toxic
- Activity [40]: Non-toxic
- Activity [41]: Non-toxic
- Activity [42]: Non-toxic
